The text below walks through data of the METLIN SMRT retention time set (Domingo-Almenara et al. 2019).

The data set in a line: gradient 5% acetonitrile 3 min, to 50% in 2 min, to 85% in 15 min, held 3 min, 100 µL/min. To be noted: column: Zorbax Extend-C18 2.1 x 50 mm; eluents: water / acetonitrile, 0.1% formic acid. The essentials:
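A Zorbax Extend-C18 column (2.1 × 50 mm, 1.8 μm) run at 100 μL/min with water and acetonitrile, both containing 0.1% formic acid, separated mixtures of ~100 pure standards. The HPLC was coupled to a quadrupole time-of-flight mass spectrometer operated in positive and negative ionization mode, with dead and dwell volumes of 40 μL and 900 μL. Each retention time was taken from a computationally picked adduct peak that was then manually inspected.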
`COC(=O)c1ncn2c1C(=O)N(Cc1cccc(Cl)c1)C(C)(C(=O)NCc1ccccc1)C2` (centres undefined) registered an RP-LC retention time of 755 s. In the case of `Cn1cc(S(=O)(=O)N2CCC(C(=O)NCc3ccccn3)CC2)cc1C(=O)N1CCCC1`, the RP-LC retention time worked out at 583 s. Molecule `COc1ccc(C(=O)Nc2c(-c3ccc(F)cc3)nc3cc(C)ccn23)c(OC)c1` gave an RP-LC retention time of 697 s. The result for `CCCNC(=O)C1CCCN(c2ccc(SCC(=O)Nc3ccc(C(=O)OC)cc3)nn2)C1` (centres undefined) reads 672 s; that for `COc1cc(-c2noc(Cn3ccnc3)n2)cc(OC)c1OC`, 604 s; that for `O=C(c1cnccn1)N1[C@H]2CC[C@@H]1c1cnc(-c3ccc(F)cc3)nc1C2`, 810 s. For the molecule `COc1ccc(OCc2nc(-c3ccc(NS(C)(=O)=O)cc3)no2)cc1`, the RP-LC retention time came to 868 s. As for `O=C([C@@H]1C[C@H](F)CN1S(=O)(=O)Cc1ccc(Cl)cc1)N1CCc2ccccc2C1`, the figure is 1020 s; as for `CCN1C(=O)CCC2(C(=O)Nc3ccc(N4CCOCC4)cc3)CCCC=C12` (centres undefined), 663 s. As for `COc1cc(OC)c(NC(=O)Nc2c(-c3cccc(C)c3)nc3ccccn23)cc1Cl`, the figure is 721 s; as for `O=C(Cn1cccc1-c1nc(-c2ccc3c(c2)OCO3)no1)Nc1ccc2c(c1)CCC2`, 1140 s.

`CN(C)c1cccc(C(=O)NCC(=O)N2CCCc3ccccc32)c1` came in with an RP-LC retention time of 728 s.

On to `O=C(NC1CCCCC1)C1CCN(c2nc3ccc(-c4cncnc4)nc3s2)CC1`, for which the RP-LC retention time is 830 s. As to `CCN1C(=O)c2cccnc2Sc2cc(NC(=O)c3ccc(Cl)s3)ccc21`, the RP-LC retention time came out at 932 s. Turning to `Cc1ncnc2c1CCC(=O)N2CC1CCCCC1`, the RP-LC retention time came out at 848 s.

Molecule `O=C(c1ccc(Br)o1)N1CCN=C1N1CCN(c2ccccc2F)CC1` had an RP-LC retention time of 695 s. On to `CCN(Cc1ccccc1)C(=O)[C@H]1[C@@H](c2cc(OC)c(OC)c(OC)c2)c2cc3c(cc2[C@@H](O)[C@@H]1CO)OCO3`, for which the RP-LC retention time turned out to be 770 s. Consider `COC(=O)c1nc(NC(=O)Cn2nc3c(cc2=O)CCCC3)sc1CC(C)C`, for which the RP-LC retention time was determined as 855 s. Consider `Cc1ccc(-c2nnc(-c3nn(C)c4c3CN(S(=O)(=O)c3ccc(CC(C)C)cc3)CC4)o2)cc1`, for which the RP-LC retention time is 1230 s. `O=C(NCCOc1ccccc1)c1cccc(Br)c1` registered an RP-LC retention time of 868 s. Regarding `CCOc1ccccc1-n1ccn(Cc2nc(-c3cccc(F)c3)no2)c(=O)c1=O`, the RP-LC retention time worked out at 876 s. As for `Cc1ccc(NC(=O)N2CCN(c3cnn4c(C)nnc4c3)CC2)c(C)c1`, the RP-LC retention time was determined as 634 s. Molecule `CN1CCc2[nH]cnc2C12CCN(C(=O)Nc1ccccc1C(F)(F)F)C2` (centres undefined) registered an RP-LC retention time of 569 s.

The molecule `CCC(=O)N1CCc2cc(N3CC(C(=O)Nc4cc(Cl)ccc4OC)CC3=O)ccc21` (centres undefined) returned an RP-LC retention time of 828 s.

With `CC(C)CCn1nc2c(S(=O)(=O)N3CCOCC3)cccn2c1=O`, the RP-LC retention time was 758 s. As for `Cc1nn(CC(=O)NCc2cc(F)cc(F)c2)c(=O)c2nc(-c3ccccc3)sc12`, the figure is 891 s. On to `O=C(NCC1(c2cccs2)CCOCC1)c1ccsc1`, for which the RP-LC retention time is 706 s. For `COc1ccc(CNC(=O)c2cn3cc(Cl)ccc3n2)cc1OC`, the RP-LC retention time was 749 s. As for `N[C@H]1C[C@@H]1c1ccccc1`, the RP-LC retention time was 578 s. As to `CCOC(=O)CCNC(=O)N1CCC(CC2CC2)(NS(C)(=O)=O)CC1`, the RP-LC retention time amounted to 672 s. Regarding `CS(=O)(=O)N1CCCNCCNC(=O)CC1c1ccccc1` (centres undefined), the RP-LC retention time worked out at 572 s. `COc1ccc(-c2nc3ccc(Br)cn3c2Nc2ccc(C)cc2)cc1` had an RP-LC retention time of 847 s. As for `O=C(Cc1c[nH]c2ccccc12)N1CCCN(c2cc(-c3ccc(Br)cc3)[nH]n2)CC1`, the figure is 722 s. Take `CC1CCN(c2cc(-n3cnc(C(=O)N4CCN(c5ccccc5F)CC4)c3)ncn2)CC1`: the RP-LC retention time came out at 1090 s. Molecule `COC(=O)c1ccc2c(=O)n(Cc3ccc(F)cc3)c(N3CCN(C)CC3)nc2c1` had an RP-LC retention time of 668 s. `O=C(c1ccccc1F)N1CCC2(CC1)N=C(c1ccc(Cl)cc1)NO2` showed an RP-LC retention time of 876 s. `O=C(CSc1nccc2ccccc12)Nc1ccccc1C(F)(F)F` returned an RP-LC retention time of 1080 s. With `CCOc1ccc(S(=O)(=O)N2CCc3c(c(-c4nnc(-c5ccc(F)cc5)o4)nn3C)C2)cc1`, the RP-LC retention time was determined as 1000 s. Molecule `CCOc1ccccc1NC(=O)N1c2ccccc2CC1c1nc(C(C)C)no1` (centres undefined) showed an RP-LC retention time of 1220 s. `CC(C)c1nnc(-c2ccc(S(=O)(=O)N3CCN(c4ccccn4)CC3)o2)o1` yielded an RP-LC retention time of 675 s. `CCn1ccc2sc(C)c(C(=O)NCc3cccs3)c2c1=O` registered an RP-LC retention time of 772 s. `CCN1CCN(c2cc(C(=O)O)c3cc(NS(=O)(=O)c4ccccc4C)ccc3n2)CC1` came in with an RP-LC retention time of 618 s. In the case of `CC(C)N(Cc1ccccc1)C(=O)CN1C(=O)CCc2cc(S(=O)(=O)N3CCCCC3C)ccc21` (centres undefined), the RP-LC retention time amounted to 1060 s. `O=C(Cn1cc(-c2nc(-c3ccc(Cl)cc3)no2)ccc1=O)Nc1ccc2c(c1)OCO2`: the RP-LC retention time was determined as 986 s. The result for `O=C(Nc1ccc(-n2cnc(C(=O)N3CCSCC3)c2)nc1)C1CC1` reads 657 s; that for `COc1ccccc1N1CCN(C(=O)c2cn3cc(Cl)ccc3n2)CC1`, 858 s; that for `O=C(NCc1ccc(Cl)cc1)c1ccc2c(c1)N(CC(=O)N1CCCC1)C(=O)CO2`, 768 s. As for `Cc1cc(C)n(-c2nc(C)c(C(=O)Nc3ccc(N(C)C)cc3)s2)n1`, the figure is 737 s. As for `Cc1ccnc(NC(c2ccccc2)c2ccc3cccnc3c2O)c1` (centres undefined), the figure is 752 s. For `CN(CCc1noc(-c2ccccc2)n1)C(=O)Nc1ccc(F)cc1F`, the RP-LC retention time amounted to 858 s. In turn, `CCCS(=O)(=O)N1CCC(OCCOCc2ccccc2)CC1` returned an RP-LC retention time of 937 s.

Take `CCOc1ccc(NC(=O)CN2CCc3c(c(=O)c4cc(C)ccc4n3C)C2)cc1`: the RP-LC retention time is 637 s. In the case of `CSc1cccc(NC(=O)C(=O)NCc2cccs2)c1`, the RP-LC retention time came to 846 s. Regarding `CCCn1cc(C(=O)Nc2cc(OC)cc(OC)c2)c(=O)c2ccc(C)nc21`, the RP-LC retention time came out at 1170 s. `COc1nc2ccccc2nc1N1CCCC(C(=O)Nc2cc(C)c(Br)cc2C)C1` (centres undefined) yielded an RP-LC retention time of 1290 s.

For the molecule `CC(C)NC(=O)c1c2c(cn(-c3ccc(F)cc3)c1=O)C(=O)CC(C)(C)C2`, the RP-LC retention time was 869 s. For the molecule `CCC(=O)N1CCc2cc(N3CC(C(=O)N4CCC5(CC4)OCCO5)CC3=O)ccc21` (centres undefined), the RP-LC retention time was 654 s. In the case of `Cc1ccc(CNC(=O)Nc2ccc(-c3nc(-c4ccc(C)cc4C)co3)cc2)cc1`, the RP-LC retention time is 1240 s. The molecule `CN(C)c1ccc(C(CNC(=O)c2ccc(Br)o2)N2CCCC2)cc1` (centres undefined) returned an RP-LC retention time of 572 s. For `Cc1cn(C)c(CC(=O)NCCN2CCOCC2)c1C(=O)O`, the RP-LC retention time came to 572 s.

In turn, `CCc1nc(OCC(=O)NCc2ccc(F)cc2)c2ccccc2n1` displayed an RP-LC retention time of 753 s.

Take `Cc1cc(C)c(-c2noc(C)n2)c(NC(=O)c2ccccc2Cl)n1`: the RP-LC retention time was determined as 744 s. With `CCCCn1cnc2c(-c3ccccc3)cn(CC(=O)Nc3ccccc3)c2c1=O`, the RP-LC retention time is 1030 s.

Consider `Cc1ccc(Nc2nc(C(=O)NCCc3cnc[nH]3)nc3ccccc23)cc1`, for which the RP-LC retention time came out at 590 s. Molecule `CCCNC(=O)c1cn(-c2ncccc2-c2nc(C(C)(C)C)no2)cn1` registered an RP-LC retention time of 768 s. The result for `NCC(=O)Nc1ccc(Cl)cc1C(=O)c1ccc[nH]1` reads 665 s; that for `Cc1ccc(Nc2nc(N)nc(CN3CCC(C(N)=O)CC3)n2)cc1`, 565 s; that for `CCCn1cc(CCNS(=O)(=O)c2c(C)cc(C)cc2C)c2cccnc21`, 962 s. As for `CS/C(=C\c1ccc(C(=O)c2ccc(C)cc2)n1C)S(C)=O` (centres undefined), the RP-LC retention time worked out at 1120 s. For `O=C(Nc1ccnn1Cc1ccccc1)c1cc(=O)c2cc(Br)ccc2o1`, the RP-LC retention time was 907 s. The result for `C#CCOCC(O)CN1CCN(C(c2ccccc2)c2ccccc2)CC1` (centres undefined) reads 606 s; that for `Cc1ccc(C(=O)Nc2nccnc2C(=O)NC2CCCC2)cc1`, 1040 s. For the molecule `CC(=O)N[C@@H]1CN(C(=O)c2ccc3c(c2)OCO3)C[C@H]1CO`, the RP-LC retention time was found to be 571 s. With `O=c1n(Cc2cccc(C(F)(F)F)c2)nc2ccc(S(=O)(=O)N3CCCCC3)cn12`, the RP-LC retention time was determined as 1030 s. In the case of `O=C(c1ccc2cc[nH]c2c1)N1CCC2(CC1)N=C(c1ccc(Cl)cc1)NO2`, the RP-LC retention time stood at 841 s. The result for `Cc1nc(C(=O)NC2CCCCC2)c(C)n1C1CCN(C)CC1` reads 555 s; that for `CC(C)(C)CC(=O)NCCn1c(=O)n(Cc2ccccc2)c2cccnc21`, 786 s. Turning to `O=C([C@@H]1C[C@H](F)CN1C(=O)NCCc1ccccc1)N1CCOCC1`, the RP-LC retention time came to 608 s. Consider `CS(=O)(=O)Nc1ccc([N+](=O)[O-])cc1OC1CCCCC1`, for which the RP-LC retention time came out at 982 s.
